Patent publication US7811352B2, “Fertilizer compositions and methods of using” (priority 2005, dated 2010)
Marks after values point to notes of the source that are not given here.

Experiments:
Format in all cases: in vivo
[1] = test system: green height, creeping bentgrass; assay: Injury rating of green height creeping bentgrass after fertilization (Example 4); settings: about two weeks after application
Procedure: In this Example, the efficacy of fertilizers on green height, creeping bentgrass was examined. Fertilizer compositions according to several embodiments of the present disclosure were prepared and compared to the commercial fertilizer products, urea 46-0-0 (granular) fertilizer, Lebanon fertilizer 21-0-12 (granular, commercially available from Lebanon Seaboard Corporation, Lebanon, Pa.) and Milorganite 6-2-0 (granular, commercially available from Milorganite, Milwaukee, Wis.). The fertilizer compositions were applied to the turf grass prior to winter dormancy of the turf at a rate equivalent to supplying about 1.0 pounds of nitrogen (N) per 1000 square feet. Each of the fertilizer compositions were applied at substantially equal rates of pounds (lbs) of nitrogen (N) per 1000 square feet. Table 1 illustrates the response of green height (i.e., the height of grass on golf course green), creeping bentgrass to fertilization using various exemplary fertilizers of the present invention, taken about two weeks after application of the fertilizer. The letters in the Color and Injury columns correspond to Duncan's Multiple Range Test. Numbers (means) in a column followed by the same letter are not statistically different at P=0.05.

[2] = test system: fairway height, creeping bentgrass; assay: Injury rating of fairway height creeping bentgrass after fertilization (Example 6); settings: about two weeks after application
Procedure: In this Example, the efficacy of fertilizers on fairway height, creeping bentgrass was examined. Fertilizer compositions according to several embodiments of the present disclosure were prepared and compared to the commercial fertilizer products, urea 46-0-0 (granular) fertilizer, Lebanon fertilizer 21-0-12 (granular, commercially available from Lebanon Seaboard Corporation, Lebanon, Pa.) and Milorganite 6-2-0 (granular, commercially available from Milorganite, Milwaukee, Wis.). The fertilizer compositions were applied to turf prior to winter dormancy at a rate equivalent to supplying about 1.0 pounds of nitrogen (N) per 1000 square feet. Each of the fertilizer compositions were applied at substantially equal rates of lbs of nitrogen (N) per 1000 square feet. Table 3 illustrates the response of fairway height, creeping bentgrass to fertilization using various exemplary fertilizers of the present invention, taken about two weeks after application of the fertilizer. The letters in the Color and Injury columns correspond to Duncan's Multiple Range Test. Numbers (means) in a column followed by the same letter are not statistically different at P=0.05.

Bermuda grass = assay: Phytotoxicity rating, Bermuda grass fairway (Example 10); settings: scale 0-5, 5=worst
Text: In this Example, the effect of a fertilizer comprising lysine on warm season turfgrass growth was examined. The effects of lysine (HCl) and LIQUID LYSINE on a common type of golf course fairway quality turfgrass (Bermuda grass) were compared with those of urea and Milorganite.
Fifteen fertilizer treatments comprising three concentrations of each fertilizer composition (Milorganite (N—P—K, 6-2-0), urea (N—P—K, 46-0-0), LIQUID LYSINE (N—P—K, 10-2-1), and both granular and aqueous lysine (HCl) (N—P—K, 15-2-1)) were prepared and applied to 4 replications of Bermuda grass. The aqueous lysine (HCl) was dissolved in water prior to application. Each fertilizer treatment was applied in concentrations of 0.5 lb N/1000 ft^2/month, 1.0 lb N/1000 ft^2/month and 3.0 lb N/1000 ft^2/month. The urea, LIQUID LYSINE and aqueous lysine (HCl) were applied as foliar liquids, while Milorganite and granular lysine (HCl) were applied as granular fertilizers Plot size was 1 m×2 m set up as a randomized complete block. Plots were mowed at 0.5 inches before fertilizer application. Irrigation (0.15 inch) was applied following application. Plots were rated for turfgrass quality and color (scale of 1-10 where 10=dark green turf, 1=dead/brown turf, and 6=minimally acceptable turf) and phytotoxicity (scale of 0-5, where 5=worst, and 2=minimally objectionable) throughout the study period. Quality, color, and phytotoxicity were measured on 2 days before application (day −2) and day 2, day 5, day 15 and day 21 after application. All data was subject to statistical analysis and significant means were determined. Average turfgrass quality ratings for the treatments are presented in Table 9 and the quality results for application rates of 1.0 lb N/1000 ft^2/month are graphically presented in FIG. 4.

[3] = test system: creeping bentgrass for greens; assay: Phytotoxicity (% burn), creeping bentgrass for greens (Example 12)
Text: In this Example, the effect of a fertilizer comprising lysine on turfgrass growth was examined. The effects of lysine (HCl) and LIQUID LYSINE on a common type of golf course greens quality turfgrass (creeping bentgrass for greens) were compared with those of CoRoN® brand fertilizer (commercially available from Helena Chemical Co., Collierville, Tenn.).
Nine fertilizer treatments comprising three concentrations of each fertilizer composition (Corono® (N—P—K, 14-2-14), LIQUID LYSINE (N—P—K, 10-2-1), and lysine (HCl) (N—P—K, 15-2-1)) were prepared and applied to 3 replications of creeping bentgrass for use on golf course greens. The lysine (HCl) (250 g) was dissolved in water (500 mL) prior to application. Each fertilizer treatment was applied in concentrations of 0.7 g N/m^2, 1.4 g N/m^2, and 2.8 g N/m^2. All applications were made using an Ortho Heavy Duty hand pump sprayer with all products being mixed with 126 mL of water for application. Plot size was 2 ft×6 ft set up as a randomized complete block. Irrigation was applied following application. Plots were rated for turfgrass quality and color (scale of 1-10 where 10=dark green turf, 1=dead/brown turf, and 6minimally acceptable turf) and phytotoxicity (% bum) throughout the study period. Quality, color, and phytotoxicity were measured on day 7, day 14, day 2I1, day 28, day 35, and day 42 after application. All data was subject to statistical analysis and significant means were determined.

[4] = 1.09 Lbs. product/1000 square feet
[5] = 2.17 Lbs. product/1000 square feet
[6] = 6.51 Lbs. product/1000 square feet

NC(N)=O [Urea, urea, reference compound]
Injury 1-9 (9 = no injury) [1, 4]: 8.0^a,b,c | Injury 1-9 (9 = no injury) [1, 5]: 8.7^a | Injury 1-9 (9 = no injury) [1, 6]: 8.3^a,b | Injury 1-9 (9 = no injury) [2, 4]: 8.7^a,b | Injury 1-9 (9 = no injury) [2, 5]: 7.7^a,b | Injury 1-9 (9 = no injury) [2, 6]: 8.7^a,b | Phytotoxicity - Bermuda Grass (Bermuda grass; Monthly Rate 0.5 lbs N/1000 ft^2, Day 2): 0.0b | Phytotoxicity - Bermuda Grass (Bermuda grass; Monthly Rate 0.5 lbs N/1000 ft^2, Day 5): 0 | Phytotoxicity - Bermuda Grass (Bermuda grass; Monthly Rate 0.5 lbs N/1000 ft^2, Day 15): 0 | Phytotoxicity - Bermuda Grass (Bermuda grass; Monthly Rate 0.5 lbs N/1000 ft^2, Day 21): 0 | Phytotoxicity - Bermuda Grass (Bermuda grass; Monthly Rate 0.5 lbs N/1000 ft^2, Day −2 (before application)): 0 | Phytotoxicity - Bermuda Grass (Bermuda grass; Monthly Rate 1.0 lbs N/1000 ft^2, Day 2): 0.0b | Phytotoxicity - Bermuda Grass (Bermuda grass; Monthly Rate 1.0 lbs N/1000 ft^2, Day 5): 0 | Phytotoxicity - Bermuda Grass (Bermuda grass; Monthly Rate 1.0 lbs N/1000 ft^2, Day 15): 0 | Phytotoxicity - Bermuda Grass (Bermuda grass; Monthly Rate 1.0 lbs N/1000 ft^2, Day 21): 0 | Phytotoxicity - Bermuda Grass (Bermuda grass; Monthly Rate 1.0 lbs N/1000 ft^2, Day −2 (before application)): 0 | Phytotoxicity - Bermuda Grass (Bermuda grass; Monthly Rate 3.0 lbs N/1000 ft^2, Day 2): 0.0b | Phytotoxicity - Bermuda Grass (Bermuda grass; Monthly Rate 3.0 lbs N/1000 ft^2, Day 5): 0 | Phytotoxicity - Bermuda Grass (Bermuda grass; Monthly Rate 3.0 lbs N/1000 ft^2, Day 15): 0 | Phytotoxicity - Bermuda Grass (Bermuda grass; Monthly Rate 3.0 lbs N/1000 ft^2, Day 21): 0 | Phytotoxicity - Bermuda Grass (Bermuda grass; Monthly Rate 3.0 lbs N/1000 ft^2, Day −2 (before application)): 0

Cl.NCCCC[C@H](N)C(=O)O [Lys (HCl) 15% N, L-lysine monohydrochloride]
Phytotoxicity (% Burn) - Creeping Bentgrass ([3]; Rate 0.7 gN/m^2, Day 7): 2.3b % | Phytotoxicity (% Burn) - Creeping Bentgrass ([3]; Rate 0.7 gN/m^2, Day 14): 15.0c % | Phytotoxicity (% Burn) - Creeping Bentgrass ([3]; Rate 0.7 gN/m^2, Day 21): 10.0d % | Phytotoxicity (% Burn) - Creeping Bentgrass ([3]; Rate 0.7 gN/m^2, Day 28): 6.7b % | Phytotoxicity (% Burn) - Creeping Bentgrass ([3]; Rate 0.7 gN/m^2, Day 35): 3.3d % | Phytotoxicity (% Burn) - Creeping Bentgrass ([3]; Rate 0.7 gN/m^2, Day 42): 1.7c % | Phytotoxicity (% Burn) - Creeping Bentgrass ([3]; Rate 1.4 gN/m^2, Day 7): 15.0c % | Phytotoxicity (% Burn) - Creeping Bentgrass ([3]; Rate 1.4 gN/m^2, Day 14): 58.3b % | Phytotoxicity (% Burn) - Creeping Bentgrass ([3]; Rate 1.4 gN/m^2, Day 21): 51.7b % | Phytotoxicity (% Burn) - Creeping Bentgrass ([3]; Rate 1.4 gN/m^2, Day 28): 18.3ab % | Phytotoxicity (% Burn) - Creeping Bentgrass ([3]; Rate 1.4 gN/m^2, Day 35): 56.7b % | Phytotoxicity (% Burn) - Creeping Bentgrass ([3]; Rate 1.4 gN/m^2, Day 42): 31.7b % | Phytotoxicity (% Burn) - Creeping Bentgrass ([3]; Rate 2.8 gN/m^2, Day 7): 36.7a % | Phytotoxicity (% Burn) - Creeping Bentgrass ([3]; Rate 2.8 gN/m^2, Day 14): 78.3a % | Phytotoxicity (% Burn) - Creeping Bentgrass ([3]; Rate 2.8 gN/m^2, Day 21): 73.3a % | Phytotoxicity (% Burn) - Creeping Bentgrass ([3]; Rate 2.8 gN/m^2, Day 28): 35.0a % | Phytotoxicity (% Burn) - Creeping Bentgrass ([3]; Rate 2.8 gN/m^2, Day 35): 83.3a % | Phytotoxicity (% Burn) - Creeping Bentgrass ([3]; Rate 2.8 gN/m^2, Day 42): 78.3a %
